According to paper PMC6539005, “Half-Wave Potentials and In Vitro Cytotoxic Evaluation of 3-Acylated 2,5-Bis(phenylamino)-1,4-benzoquinones on Cancer Cells” (Molecules, 2019):

Experiments:
GSTP1 = experiment: qPCR relative gene expression in T24 cells, GSTP1; type: cell-based, human; conditions: 48 h; 2c at 32 µM, 2d at 68 µM; normalized to B2M, 2^−ΔΔCt vs vehicle; mean ± SEM, n = 5
Description: (§1) The T24 cells were cultured as previously mentioned. They were seeded into 6-well plates (2 × 10^5 cells/well) and, after 24 h of incubation, they were treated for 48 h with 2c and 2d (at 32 and 68 µM, respectively). Afterwards, they were washed with phosphate-buffered saline. The cellular lysate was prepared with E.Z.N.A.® RNA-Lock Reagent (Omega Bio-tek, Norcross, GA, USA) to preserve and immediately stabilize the total RNA for the subsequent gene expression assays. The total RNA isolated from the cells using the E.Z.N.A.® HP Total RNA Isolation Kit (Omega Bio-tek) was reverse-transcribed to cDNA using the AffinityScript QPCR cDNA Synthesis Kit (Agilent Technologies, Santa Clara, CA, USA) and 1000 ng of the RNA sample.
(§2) The cDNA synthesized was employed for qPCR using Brilliant III Ultra-Fast SYBR® Green QPCR Master Mix (Agilent Technologies) in a Mx3000P qPCR System (Agilent Technologies), employing a 96-well plate with 20 μL of PCR reaction per well and 10 pmol each of forward and reverse gene-specific primers. Ten genes were analyzed (see Table 4). The relative gene expressions were determined using Beta-2-microglobulin (B2M) as housekeeping, and the delta-delta Ct method (2^−ΔΔCt method) with regard to the vehicle-treated group (i.e., the reference group). Five biological replicates were used from each group (treated and reference group). […]

T24 and DU-145 cells = experiment: MTT cytotoxicity assay, both cancer cell lines; type: cell-based; conditions: Homo sapiens; mean of T24 and DU-145 IC50
Description: (§3) The 3-acyl-2,5-bis(phenylamino)-1,4-benzoquinones 2a–q were evaluated for their in vitro cytotoxic activities against normal human embryonic kidney cells (HEK-293 cells) and two human cancer cell lines (T24 and DU-145 cells) in 72 h drug exposure assays. The cytotoxic activities of the new compounds were measured using conventional microculture tetrazolium reduction assays. The cytotoxic activities are expressed in terms of IC50. Doxorubicin, a clinically used anti-cancer agent, was taken as a positive control.
(§4) Human cancer cell lines T24 (bladder) and DU-145 (prostate), and non-tumor HEK-293 cells were obtained from the American Type Culture Collection (ATCC, Manassas, VA, USA). The cultures were maintained at a density of 1× 10^5 cells/mL and the medium was changed at 48- to 72-h intervals. They were cultured in high-glucose Dulbecco’s modified Eagle medium (Gibco, Grand Island, NY, USA) supplemented with 10% fetal calf serum, penicillin (100 U/mL), and streptomycin (100 μg/mL). All cultures were kept at 37 °C in 95% air/5% CO2 at 100% humidity. Phosphate-buffered saline (PBS) was purchased from Gibco. Cells were incubated at the indicated times at 37 °C, with or without quinones at various concentrations.
(§5) The cytotoxicity of the quinones was assessed by following the reduction of MTT (3-(4,5-Dimethylthiazol-2-yl)-2,5-diphenyltetrazolium bromide) to formazan blue. Cells were seeded into 96-well plates at a density of 10,000 cells/well for 24 h and then incubated for 48 h, with or without the quinone derivatives. Doxorubicin was used as the standard chemotherapeutic agent (positive control). Cells were then washed twice with warm PBS and incubated with MTT (0.5 mg/mL) for 2 hours at 37 °C. Blue formazan crystals were solubilized by adding 100 µL DMSO/well, and the optical density of the coloured solutions was subsequently read at 550 nm. Results are expressed as percentage of MTT reduction, compared to untreated control conditions. The IC50 values were calculated using the GraphPad Prism software (San Diego, CA, USA).

TP53 = experiment: qPCR relative gene expression in T24 cells, TP53; type: cell-based, human; conditions: 48 h; 2c at 32 µM, 2d at 68 µM; normalized to B2M, 2^−ΔΔCt vs vehicle; mean ± SEM, n = 5
Description: as §1, §2

HDAC4 = experiment: qPCR relative gene expression in T24 cells, HDAC4; type: cell-based, human; conditions: 48 h; 2c at 32 µM, 2d at 68 µM; normalized to B2M, 2^−ΔΔCt vs vehicle; mean ± SEM, n = 5
Description: as §1, §2

CDC25A = experiment: qPCR relative gene expression in T24 cells, CDC25A; type: cell-based, human; conditions: 48 h; 2c at 32 µM, 2d at 68 µM; normalized to B2M, 2^−ΔΔCt vs vehicle; mean ± SEM, n = 5
Description: as §1, §2

HEK-293 kidney cells = experiment: MTT cytotoxicity assay, HEK-293; type: cell-based; conditions: Homo sapiens, HEK293, non-tumor cells, 48 h incubation (b12: 72 h), n = 3, read-out: IC50 ± SEM HEK-293
Description: as §3, §4, §5

[1] = Half-wave potentials by cyclic voltammetry in acetonitrile; type: physicochemical; conditions: rt, Pt electrode, vs non-aqueous Ag/Ag+, given as negative of potential; for −E^I 1/2: first one-electron reduction, 0.1 M tetraethylammonium tetrafluoroborate; for −E^II 1/2: second one-electron reduction
Description: The members of the 3-acyl-2,5-bis(phenylamino)-1,4-benzoquinone series 2a–q were evaluated for their half-wave potentials (E^I 1/2 and E^II 1/2). They were measured by cyclic voltammetry in acetonitrile at room temperature, using a platinum electrode and 0.1 M tetraethylamoniumtetrafluoroborate as the supporting electrolyte. The voltammograms were run in the potential range from 0.0 to −2.0 V versus non-aqueous Ag/Ag^+.

HRAS = experiment: qPCR relative gene expression in T24 cells, HRAS; type: cell-based, human; conditions: 48 h; 2c at 32 µM, 2d at 68 µM; normalized to B2M, 2^−ΔΔCt vs vehicle; mean ± SEM, n = 5
Description: as §1, §2

mTOR = experiment: qPCR relative gene expression in T24 cells, mTOR; type: cell-based, human; conditions: 48 h; 2c at 32 µM, 2d at 68 µM; normalized to B2M, 2^−ΔΔCt vs vehicle; mean ± SEM, n = 5
Description: as §1, §2

HDAC3 = experiment: qPCR relative gene expression in T24 cells, HDAC3; type: cell-based, human; conditions: 48 h; 2c at 32 µM, 2d at 68 µM; normalized to B2M, 2^−ΔΔCt vs vehicle; mean ± SEM, n = 5
Description: as §1, §2

BCL2 = experiment: qPCR relative gene expression in T24 cells, BCL2; type: cell-based, human; conditions: 48 h; 2c at 32 µM, 2d at 68 µM; normalized to B2M, 2^−ΔΔCt vs vehicle; mean ± SEM, n = 5
Description: as §1, §2

T24 (bladder) cells = experiment: MTT cytotoxicity assay, T24; type: cell-based, human; conditions: Homo sapiens, 48 h incubation (b12: 72 h), n = 3, read-out: IC50 ± SEM T24
Description: as §3, §4, §5

DU-145 (prostate) cells = experiment: MTT cytotoxicity assay, DU-145; type: cell-based; conditions: Homo sapiens, 48 h incubation (b12: 72 h), n = 3, read-out: IC50 ± SEM DU-145
Description: as §3, §4, §5

GSR = experiment: qPCR relative gene expression in T24 cells, GSR; type: cell-based, human; conditions: 48 h; 2c at 32 µM, 2d at 68 µM; normalized to B2M, 2^−ΔΔCt vs vehicle; mean ± SEM, n = 5
Description: as §1, §2

[2] = test system: human colon adenocarcinoma; set-up: method as in PMID 3746824; conditions: cited from earlier work
leukemia L1210 = test system: leukemia L1210; set-up: method as in PMID 3746824; conditions: cited from earlier work

| −E^I 1/2 [1] [mV] | −E^II 1/2 [1] [mV] | SMILES | Relative Expression Levels in T24 Cells, GSTP1 (GSTP1) | IC50 (T24 and DU-145 cells) [µM] | Relative Expression Levels in T24 Cells, TP53 (TP53) | Relative Expression Levels in T24 Cells, HDAC4 (HDAC4) | Relative Expression Levels in T24 Cells, CDC25A (CDC25A) | IC50 (HEK-293 kidney cells) [µM] | Relative Expression Levels in T24 Cells, HRAS (HRAS) | Relative Expression Levels in T24 Cells, mTOR (mTOR) | Relative Expression Levels in T24 Cells, HDAC3 (HDAC3) | Relative Expression Levels in T24 Cells, BCL2 (BCL2) | IC50 (T24 (bladder) cells) [µM] | IC50 (DU-145 (prostate) cells) [µM] | Relative Expression Levels in T24 Cells, GSR (GSR) | in vitro inhibitory activity against human colon adenocarcinoma proliferation [2] | activity against the leukemia L1210 screening in vitro (leukemia L1210) |
| --- | --- | --- | --- | --- | --- | --- | --- | --- | --- | --- | --- | --- | --- | --- | --- | --- | --- |
| 590 | 910 | CCCCCCCC(=O)C1=C(Nc2ccccc2)C(=O)C=C(Nc2ccccc2)C1=O [2d, 3-Octanoyl-2,5-bis(phenylamino)-1,4-benzoquinone] | 1.21 ± 0.04 | 28.7 | 1.01 ± 0.04 | 1.01 ± 0.02 | 1.07 ± 0.03 | > 100 | 1.33 ± 0.06 | 0.95 ± 0.02 | 1.02 ± 0.05 | 0.8 ± 0.04 | 34 ± 3.7 | 23.5 ± 2.1 | 1.07 ± 0.04 | – | – |
| 570 | 1090 | CCCCCC(=O)C1=C(Nc2ccccc2)C(=O)C=C(Nc2ccccc2)C1=O [2c, 3-Hexanoyl-2,5-bis(phenylamino)-1,4-benzoquinone] | 0.9 ± 0.08 | 30.7 | 1.06 ± 0.11 | 1.08 ± 0.13 | 1.54 ± 0.13 | > 100 | 1.07 ± 0.13 | 0.99 ± 0.13 | 1.03 ± 0.15 | 1.28 ± 0.15 | 16.3 ± 1.7 | 45.2 ± 4.5 | 0.96 ± 0.05 | – | – |
| – | – | CC(C)c1ccc(NC2=C(Cl)C(=O)C(Nc3ccc(C(C)C)cc3)=C(Cl)C2=O)cc1 [B] | – | – | – | – | – | – | – | – | – | – | – | – | – | good in vitro inhibitory activity | active |
